Laboratory results as given in patent US20220235068A1, “TETRACYCLIC COMPOUNDS AS CDC7 INHIBITORS” (Chia Tai Tianqing Pharmaceutical Group Co., Ltd., priority 2019, published 2022).
Counter-ions that a name gives are not always drawn. Like-named read-outs stand apart in the source and are kept apart here.

Key:
Cdc7/DBF4 = target: T1, Cdc7/DBF4 (Homo sapiens, UniProt O00311); assay: Inhibitory effect against activity of Cdc7/DBF4 (ADP-Glo kinase detection kit); format: biochemical; settings: 10 μM ATP, 25° C., 60 min
T1 construct: purchased Promega
Method: Cdc7/DBF4 kinase detection kit purchased from Promega; and
(§1) Nivo multi-marker analyzer (PerkinElmer).
An enzyme, a substrate, adenosine triphosphate and an inhibitor were diluted with the kinase buffer in the kit. A test compound was serially 5-fold diluted to an 8th concentration, i.e., from 10 μM to 0.13 nM, with the DMSO concentration being 5%, and the duplicate well experiment was set up. To a microplate were added 1 μL of inhibitors of various concentration gradients, 2 μL of CDCl7/DBF4 kinase (6.25 ng), 2 μL of a mixture of substrate and ATP (10 μM adenosine triphosphate, 0.2 μg/μL substrate), and the final concentration gradient of the compound was diluted from 2 μM to 0.025 nM. The reaction system was left reacting at 25° C. for 60 min. After the reaction was completed, 5 μL of ADP-Glo reagent was added to each well, and the reaction was continued at 25° C. for 40 min. After the reaction was completed, 10 μL of the kinase detection reagent was added to each well. After 30 min of reaction at 25° C., the chemiluminescence was read using the multi-marker analyzer with an integration time of 0.5 s.
The original data were converted to inhibition using the equation (Sample−Min)/(Max−Min)×100%, and the IC50 value was then curve fitted using four parameters (obtained from the “log(inhibitor) vs. response-Variableslope” model in GraphPadPrism). Table 1 provides the enzymatic inhibitory activity of the compounds disclosed herein against Cdc7/DBF4.

[1] = tested on: human colorectal cancer cell SW620; assay: In vivo pharmacodynamic study in subcutaneous xenograft tumor nude mouse model of SW620; settings: BID, p.o.
Method: Human colorectal cancer cell SW620 cells of the 7th passage were cultured in an L-15 medium containing 10% fetal bovine serum, 100 U/mL penicillin and 100 μg/mL streptomycin through in vitro monolayer culture in an incubator at 37° C./[…] for 4 passages with conventional medium replacement. At a cell saturation of 80-90%, the cells were digested with pancreatin-EDTA, counted and resuspended in PBS at a density of 5×10^6 cells/100 μL.
Cell inoculation: Each mouse was inoculated on the right cervical dorsum with 0.1 mL of the cell suspension of 5×10^6 SW620 cells in PBS. At an average tumor volume up to about 134 mm^3, the mice were randomly grouped and administrated.
Tumor diameters were measured twice weekly using a vernier caliper. The tumor volume was calculated using the following formula: V=0.5 a×b^2, where a and b represent the long diameter and short diameter of the tumor, respectively.
The anti-tumor therapeutic effect of the compound was evaluated by TGI (%) or relative tumor proliferation rate T/C (%). Relative tumor proliferation rate T/C (%)=TRTV/CRTV×100% (TRTV: RTV of treatment group; CRTV: RTV of negative control group). Relative tumor volumes (RTVs) were calculated from the tumor measurement results using the following formula: RTV=Vt/VO, where VO is the average tumor volume measured at the time of grouping (i.e., DO), Vt is the average tumor volume measured at a certain measurement, and TRTV and CRTV are taken from the data measured on the same day.
TGI (%), reflects the tumor growth inhibition rate. TGI (%)=[(1−(average tumor volume at the end of administration in a treatment group−average tumor volume at the start of administration of the treatment group))/(average tumor volume at the end of treatment of the vehicle control group−average tumor volume at the start of treatment of the vehicle control group)]×100%.
After day 22 of the grouping, mice were euthanized, plasma and tumors were sampled and tumors were weighed and photographed.

Colo205 cells = assay: Inhibitory effect against Colo205 cell proliferation (CellTiter-Glo); format: cell-based; settings: incubation 3 days
Method: 1640 medium; fetal bovine serum; penicillin/streptomycin antibiotics purchased from Wisent;
CellTiter-Glo (chemiluminescence detection reagent for cell viability) reagent purchased from Promega;
COL0205 cell line purchased from Wuhan Procell Life Science&Technology Co., Ltd; and
as §1
COL0205 cells were plated on to white 96-well plates by adding 80 μL of cell suspension (containing 3000 COL0205 cells) to each well. The cell plate was incubated in a CO2 incubator overnight.
A test compound was serially 3-fold diluted to an 8th concentration, i.e., from 2 mM to 920 nM, and the duplicate well experiment was set up. 78 μL of medium was added to an intermediate plate, 2 μL of the serially diluted compound was transferred to corresponding wells of the intermediate plate, and after mixing, the mixture was transferred to the cell plate at 20 μL per well. The concentration of the compound transferred to the cell plate ranged from 10 μM to 4.57 nM. The cell plate was incubated in a CO2 incubator for 3 days. Another cell plate was provided for reading signal values on the day of compound addition and these values were used as […] in data analysis. The chemiluminescence detection reagent for cell viability was added to this cell plate at 25 μL per well and the luminescence signals were stabilized by incubation at room temperature for 10 min. Readings were taken using the multi-marker analyzer. The chemiluminescence detection reagent for cell viability was added to the cell plate at 25 μL per well and the luminescence signals were stabilized by incubation at room temperature for 10 min. Readings were taken using the multi-marker analyzer.
The original data were converted to inhibition using the equation (Sample−Min)/(Max−Min)×100%, and the IC50 value was then curve fitted using four parameters (obtained from the “log(inhibitor) vs. response-Variableslope” model in GraphPadPrism). Table 2 provides the inhibitory activity of the compounds disclosed herein against COL0205 cell proliferation.

[2] = Single-dose pharmacokinetic study in mice; format: in vivo; settings: male CD-1 mice
Method: To evaluate the pharmacokinetic behavior by using male CD-1 mice as test animals and determining the drug concentrations of the compounds in the plasma after single-dose administration. Healthy adult male CD-1 mice were selected for intragastric administration. A compound was mixed with an appropriate amount of 5% DMSO/95% (10% hydroxypropyl-β-cyclodextrin), vortexed and sonicated to prepare a 1 mg/mL clear solution for later use. After the mice were administered intravenously at 2 mg/kg and orally at 10 mg/kg, whole blood was collected at certain time points, and plasma was separated. After pretreatment of the samples, the drug concentration was measured by LC-MS/MS, and pharmacokinetic parameters were calculated using Phoenix WinNonlin software.

[3] = mouse, plasma, IV: 2 mg/kg, PO: 10 mg/kg

T1 sequence (O00311 whole entry): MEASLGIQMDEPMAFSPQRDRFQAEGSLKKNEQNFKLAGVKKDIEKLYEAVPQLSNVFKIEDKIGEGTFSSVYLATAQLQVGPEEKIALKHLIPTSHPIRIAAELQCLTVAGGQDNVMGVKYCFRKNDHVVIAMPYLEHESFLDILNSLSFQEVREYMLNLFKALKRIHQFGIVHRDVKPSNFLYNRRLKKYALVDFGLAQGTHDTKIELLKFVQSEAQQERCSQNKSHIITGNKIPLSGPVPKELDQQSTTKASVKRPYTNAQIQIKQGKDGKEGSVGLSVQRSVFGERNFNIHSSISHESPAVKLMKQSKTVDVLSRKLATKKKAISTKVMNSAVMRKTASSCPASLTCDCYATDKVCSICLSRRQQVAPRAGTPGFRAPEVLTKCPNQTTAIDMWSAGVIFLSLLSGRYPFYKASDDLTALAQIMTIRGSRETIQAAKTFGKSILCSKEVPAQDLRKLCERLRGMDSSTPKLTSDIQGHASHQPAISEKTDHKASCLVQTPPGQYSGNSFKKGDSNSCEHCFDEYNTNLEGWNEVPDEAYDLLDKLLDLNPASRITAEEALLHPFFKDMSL
T1 sequence (Q9UBU7 whole entry partner): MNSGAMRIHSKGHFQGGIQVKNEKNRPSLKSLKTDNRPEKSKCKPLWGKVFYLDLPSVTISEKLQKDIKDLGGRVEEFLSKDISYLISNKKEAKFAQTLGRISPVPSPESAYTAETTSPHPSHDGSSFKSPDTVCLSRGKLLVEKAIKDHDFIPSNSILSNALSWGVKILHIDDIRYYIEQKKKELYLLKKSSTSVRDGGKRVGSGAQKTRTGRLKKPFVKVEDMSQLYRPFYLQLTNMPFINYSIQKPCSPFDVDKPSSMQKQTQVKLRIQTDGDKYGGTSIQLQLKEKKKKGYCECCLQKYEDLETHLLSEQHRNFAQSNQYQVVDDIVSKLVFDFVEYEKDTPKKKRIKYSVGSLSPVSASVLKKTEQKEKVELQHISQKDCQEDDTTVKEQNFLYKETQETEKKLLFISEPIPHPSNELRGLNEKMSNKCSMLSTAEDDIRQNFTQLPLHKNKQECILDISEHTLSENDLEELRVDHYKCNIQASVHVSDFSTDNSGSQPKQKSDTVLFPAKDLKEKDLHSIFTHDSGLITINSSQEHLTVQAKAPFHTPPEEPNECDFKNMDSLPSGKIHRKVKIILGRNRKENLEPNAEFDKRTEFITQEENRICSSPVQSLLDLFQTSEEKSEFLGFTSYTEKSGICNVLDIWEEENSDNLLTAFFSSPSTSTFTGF

Work on `CN1CCCC1c1nc2c3c(sc2c(=O)[nH]1)-c1c[nH]nc1CCC3` (single isomer, unassigned) [Compound 3-2 hydrochloride] yielded an IC50 (Cdc7/DBF4) of 0.42 nM.
Compound `O=c1[nH]c(C2CCCNC2)nc2c3c(sc12)-c1c[nH]nc1CCC3` (single isomer, unassigned) [Compound 8-2 hydrochloride] has an IC50 (Cdc7/DBF4) of 1.17 nM.
Work on `CC(C)N1CCCC1c1nc2c3c(sc2c(=O)[nH]1)-c1c[nH]nc1CCC3` (single isomer, unassigned) [Compound 6-2 hydrochloride] yielded an IC50 (Cdc7/DBF4) of 0.99 nM.
Work on `CC1(c2nc3c4c(sc3c(=O)[nH]2)-c2c[nH]nc2CCC4)CCCN1` (single isomer, unassigned) [Compound 4-1 hydrochloride] yielded an IC50 (Cdc7/DBF4) of 4.56 nM.
For `CN1CCCC1c1nc2c3c(sc2c(=O)[nH]1)-c1c[nH]nc1CCC3` (single isomer, unassigned) [Compound 3-1 hydrochloride], the IC50 (Cdc7/DBF4) was 1.19 nM.
Work on `CN1CCCC1(C)c1nc2c3c(sc2c(=O)[nH]1)-c1c[nH]nc1CCC3` (single isomer, unassigned) [Compound 5-1 hydrochloride] yielded an IC50 (Cdc7/DBF4) of 2.04 nM.
With `CN1CCCCC1c1nc2c3c(sc2c(=O)[nH]1)-c1c[nH]nc1CCC3` (single isomer, unassigned) [Compound 7-1 formate] the IC50 (Cdc7/DBF4) was 3.07 nM.
For `Cc1n[nH]cc1-c1cc2nc([C@@H]3CC4CCN3CC4)[nH]c(=O)c2s1` [TAK-931, reference compound], the “Tumor volume (Day 1)” value ([1]; 40 mg/kg) was 134 ± 13 mm^3, the “RTV (Day 21)” value ([1]; 40 mg/kg) was 1.36 and the “T/C (%) (Day 21)” value ([1]; 40 mg/kg) was 16%. The “TGI (%) (Day 21)” value ([1]; 40 mg/kg) was 96% and the “Tumor volume (Day 21)” value ([1]; 40 mg/kg) was 176 ± 27 mm^3.
`O=c1[nH]c(C2CCCN2)nc2c3c(sc12)-c1c[nH]nc1CCC3` (single isomer, unassigned) [Compound 2-1 hydrochloride] showed an IC50 (Cdc7/DBF4) of 3.73 nM.
`CN1CCCC(c2nc3c4c(sc3c(=O)[nH]2)-c2c[nH]nc2CCC4)C1` (single isomer, unassigned) [Compound 9-1 hydrochloride] showed an IC50 (Cdc7/DBF4) of 4.85 nM.
Compound `CN1CCC(C)(c2nc3c4c(sc3c(=O)[nH]2)-c2c[nH]nc2CCC4)CC1` [Compound 13 hydrochloride] has an IC50 (Cdc7/DBF4) of 5.66 nM.
Compound `CN1CCC(c2nc3c4c(sc3c(=O)[nH]2)-c2c[nH]nc2CCC4)CC1` [Compound 11 hydrochloride] has an IC50 (Cdc7/DBF4) of 4.85 nM.
Compound `CN1CCCCC1c1nc2c3c(sc2c(=O)[nH]1)-c1c[nH]nc1CCC3` (single isomer, unassigned) [Compound 7-2 formate] has an IC50 (Cdc7/DBF4) of 2.7 nM.
`O=c1[nH]c(C2C3CCN2CC3)nc2c3c(sc12)-c1c[nH]nc1CCC3` (single isomer, unassigned) [Compound 14-2 hydrochloride] showed an IC50 (Cdc7/DBF4) of 1.43 nM.
In the case of `O=c1[nH]c([C@H]2CC3CCN2CC3)nc2c3c(sc12)-c1c[nH]nc1CCC3` (single isomer, unassigned) [Compound 1-1 hydrochloride], the IC50 (Cdc7/DBF4) is reported as 3.02 nM, the IC50 (Colo205 cells) is reported as 13.8 nM and the Maximum concentration ([2]; IV: 2 mg/kg, PO: 10 mg/kg) is reported as 2230 nM. For the same compound, the AUC(0-t) ([2]; mouse, plasma, IV 2 mg/kg, read-out: AUC0-last (intravenous injection)) was 2.45 µM·h, the bioavailability [2, 3] was 71.4% and the clearance [2, 3] was 35.2 mL/min/kg. It also gave a half-life [2, 3] of 4.03 h, a Vd ([2]; mouse, plasma, IV: 2 mg/kg, PO: 10 mg/kg, read-out: Apparent volume of distribution) of 4.13 L/kg and an AUC(0-t) ([2]; mouse, plasma, PO 10 mg/kg, read-out: AUC0-last (oral)) of 9.08 µM·h. For the same compound, the “Tumor volume (Day 1)” value ([1]; 2.5 mg/kg) was 134 ± 13 mm^3, the “RTV (Day 21)” value ([1]; 2.5 mg/kg) was 1.88 and the “T/C (%) (Day 21)” value ([1]; 2.5 mg/kg) was 22%. For the same compound, the “TGI (%) (Day 21)” value ([1]; 2.5 mg/kg) was 89%, the “Tumor volume (Day 21)” value ([1]; 2.5 mg/kg) was 237 ± 27 mm^3 and the “Tumor volume (Day 1)” value ([1]; 5 mg/kg) was 134 ± 15 mm^3. The “RTV (Day 21)” value ([1]; 5 mg/kg) was 0.93, the “T/C (%) (Day 21)” value ([1]; 5 mg/kg) was 11% and the “TGI (%) (Day 21)” value ([1]; 5 mg/kg) was 100%. The “Tumor volume (Day 21)” value ([1]; 5 mg/kg) was 133 ± 32 mm^3, the “Tumor volume (Day 1)” value ([1]; 7.5 mg/kg) was 134 ± 14 mm^3 and the “RTV (Day 21)” value ([1]; 7.5 mg/kg) was 0.31. For the same compound, the “T/C (%) (Day 21)” value ([1]; 7.5 mg/kg) was 4%, the “TGI (%) (Day 21)” value ([1]; 7.5 mg/kg) was 108% and the “Tumor volume (Day 21)” value ([1]; 7.5 mg/kg) was 53 ± 16 mm^3.
With `CC(C)N1CCCC1c1nc2c3c(sc2c(=O)[nH]1)-c1c[nH]nc1CCC3` (single isomer, unassigned) [Compound 6-1 hydrochloride] the IC50 (Cdc7/DBF4) was 1.7 nM.
`O=c1[nH]c([C@H]2CC3CCN2CC3)nc2c3c(sc12)-c1c[nH]nc1CCC3` (single isomer, unassigned) [Compound 1-2 hydrochloride] gave an IC50 (Cdc7/DBF4) of 1.29 nM and an IC50 (Colo205 cells) of 53.6 nM.
Compound `CN1CCCC1(C)c1nc2c3c(sc2c(=O)[nH]1)-c1c[nH]nc1CCC3` (single isomer, unassigned) [Compound 5-2 hydrochloride] has an IC50 (Cdc7/DBF4) of 2.35 nM.
Compound `CC1(c2nc3c4c(sc3c(=O)[nH]2)-c2c[nH]nc2CCC4)CCNCC1` [Compound 12 hydrochloride] has an IC50 (Cdc7/DBF4) of 1.38 nM.
`O=c1[nH]c(C2C3CCN2CC3)nc2c3c(sc12)-c1c[nH]nc1CCC3` (single isomer, unassigned) [Compound 14-1 hydrochloride] showed an IC50 (Cdc7/DBF4) of 1.21 nM and an IC50 (Colo205 cells; Homo sapiens, COLO 205, 72 h) of 50.1 nM.
Compound `O=c1[nH]c(C2CCCNC2)nc2c3c(sc12)-c1c[nH]nc1CCC3` (single isomer, unassigned) [Compound 8-1 hydrochloride] has an IC50 (Cdc7/DBF4) of 4.27 nM.
For `CN1CCCC(c2nc3c4c(sc3c(=O)[nH]2)-c2c[nH]nc2CCC4)C1` (single isomer, unassigned) [Compound 9-2 hydrochloride], the IC50 (Cdc7/DBF4) was 1.09 nM.
`CC1(c2nc3c4c(sc3c(=O)[nH]2)-c2c[nH]nc2CCC4)CCCN1` (single isomer, unassigned) [Compound 4-2 hydrochloride] showed an IC50 (Cdc7/DBF4) of 6.73 nM.
With `O=c1[nH]c(C2CCNCC2)nc2c3c(sc12)-c1c[nH]nc1CCC3` [Compound 10 hydrochloride] the IC50 (Cdc7/DBF4) was 1.69 nM.
`O=c1[nH]c(C2CCCN2)nc2c3c(sc12)-c1c[nH]nc1CCC3` (single isomer, unassigned) [Compound 2-2 hydrochloride] gave an IC50 (Cdc7/DBF4) of 1.52 nM.
